Measurements published in publication PMC5998061 (2018).

Experiments:
[1] = test system: MG aptamer construct for SHAPE (MG aptamer SHAPE construct) (RNA, aptamer) GGGCCUUCGGGCCAAGGAUCCCGACUGGCGAGAGCCAGGUAACGAAUGGAUCCUCGAUCCGGUUCGCCGGAUCCAAAUCGGGCUUCGGUCCGGUUC; experiment: SHAPE (NMIA), A30/A31 band ratio, Boltzmann fit; conditions: 100 mM KCl, 1 mM Mg-citrate; bicine pH 8.5; RNA outside empty myristoleic acid vesicles; MG incubation room temperature, NMIA 10 °C; apparent
[2] = test system: MG RNA aptamer (malachite green RNA aptamer) (RNA, aptamer) GGAUCCCGACUGGCGAGAGCCAGGUAACGAAUGGAUCC; experiment: fluorescence titration, Hill fit n = 1; conditions: 100 mM KCl, 1 mM Mg-citrate; 10 mM HEPES, 0.2 M bicine, pH 8.5, room temperature; no vesicles

CN(C)c1ccc(C(=C2C=CC(=[N+](C)C)C=C2)c2ccccc2)cc1
midpoint [1]: 6.1 ± 0.7 µM | KD [2]: 2500 ± 400 nM
